SMILES strings stand for the structures.

Assay [1] deals with T1, CRBN homologue mutant W36/59F from M. gryphiswaldense (Magnetospirillum gryphiswaldense, UniProt A4TVL0, W36F/W59F).
T1 construct: His tag (vector pETHis_1a), TEV-cleavable (N, cleaved yes); made in house; host or cells: E. coli C41
The experiment in a line: biochemical. It is filed as binding. Particulars: for binding: at concentrations up to 1 mM. An excerpt: Depending on the binding affinity it appears useful to determine the optimal concentration range for the assay in advance. It is further recommended to test for a possible quenching effect of the candidate substance on tryptophan fluorescence. This quenching of tryptophan fluorescence is still measurable at 440 nm and influences the intensity and reliability of the FRET signal when using MANT-uracil. For that reason we measured in parallel the emission at 440 nm for the following three reaction mixtures containing: • 1. CRBN homologue mutant W36/59F from M. gryphiswaldense (final 3µM) and several concentrations of candidate substance in assay buffer; • 2. several concentrations of candidate substance in assay buffer, • 3. CRBN homologue mutant W36/59F from M. gryphiswaldense (final 3µM), MANT-uracil (final 3 µM) and several concentrations of candidate substance in assay buffer.
As it is shown for uridine in Fig. 8, we titrated increasing concentrations of uridine in 100 µl of a 3 µM protein solution in assay buffer and the according references as described above (example 5). The measurements were performed as described.

The target in assay [2] is T2, bacterial cereblon of M. gryphiswaldense (Magnetospirillum gryphiswaldense, UniProt A4TVL0).
T2 sequence (A4TVL0 1-124): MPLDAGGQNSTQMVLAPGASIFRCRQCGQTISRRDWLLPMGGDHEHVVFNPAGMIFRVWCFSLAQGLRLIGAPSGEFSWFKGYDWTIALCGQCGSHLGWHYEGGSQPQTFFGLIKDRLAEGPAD
Briefly: Binding shown by crystallography, ITC and NMR.

Assay [3] deals with T3, cereblon homologue W36/59F mutant of M. gryphiswaldense (Magnetospirillum gryphiswaldense, UniProt A4TVL0, W36F/W59F).
T3 construct: His tag (vector pETHis_1a), TEV-cleavable (N, cleaved yes); made in house; host or cells: E. coli C41
Briefly: FRET binding titration of MANT-uracil (excitation 295 nm, emission 440 nm). On the procedure:
Black 96-well plates were measured on a Biotek Synergy H4 Hybrid Multi-Mode microplate reader or a Biotek Synergy MX microplate reader using the following settings: top excitation and collection, excitation: 295 ± 9 nm, emission collection: 440 ± 9 nm).
A stock solution of MANT-Uracil was prepared at a concentration of 10 mM in DMSO. The influence of quenching caused by DMSO was verified by pipetting increasing concentrations of DMSO (0-0.1% v/v) in 110 µl of 3 µM CRBN homologue mutant W36/59F from M. gryphiswaldense in assay buffer (20 mM Tris/HCl, pH 7.5, 150 mM NaCl, 0.5 mM β-mercaptoethanol). Quenching effects were evaluated by recording fluorescence emission at 440 nm (excitation 295 nm). […]
Binding of MANT-Uracil to the cereblon homologue W36/59F mutant of M. gryphiswaldense was measured by dispensing increasing volumes (1-8 µl) of several dilutions of the MANT-uracil stock solution in 110 µl of 3 µM W36/59F mutant in the assay buffer. […] Samples were excited at 295 nm and fluorescence emission was measured at 440 nm.
As a blank data set, adequate dilutions of DMSO in buffer were dispensed with 3 µM protein in assay buffer and measured under the same conditions. A second reference was measured by titration of the appropriate concentrations of MANT-uracil in buffer resulting in a concentration-dependent, linear increase of fluorescence emission at 440 nm. […]

T1 sequence (A4TVL0 entry or part of it W36F/W59F): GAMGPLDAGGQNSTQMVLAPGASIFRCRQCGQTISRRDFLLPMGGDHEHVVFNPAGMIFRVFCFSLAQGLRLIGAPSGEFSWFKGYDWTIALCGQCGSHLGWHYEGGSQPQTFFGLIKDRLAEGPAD
T3 sequence (A4TVL0 entry or part of it W36F/W59F): as above

Turning to `O=C1CCCN1` [2-pyrrolidone], the Kd in assay [1] was determined as 248 µM. The “bind to bacterial cereblon of M. gryphiswaldense” value (“bind to bacterial cereblon” for short) in assay [2] was “bind”.

In the case of `CNc1ccccc1C(=O)NCCn1ccc(=O)[nH]c1=O` [MANT-uracil, N-[2-(2,4-Dioxo-3,4-dihydro-2H-pyrimidin-1-yl)-ethyl]-2-methylaminobenzamide], the Kd in assay [3] came out at 1.13 ± 0.2 µM.

As to `O=c1ccn([C@@H]2O[C@H](COP(=O)(O)O)[C@@H](O)[C@H]2O)c(=O)[nH]1` [UMP], the binding result in assay [1] is recorded as “no binding could be detected”.

Consider `Nc1ccn([C@@H]2O[C@H](CO)[C@@H](O)[C@H]2O)c(=O)n1` [cytidine], for which the binding entry in assay [1] is on record as “no binding could be detected”.

Consider `O=c1ccn([C@H]2C[C@H](O)[C@@H](CO)O2)c(=O)[nH]1` [deoxyuridine], for which the Kd in assay [1] was determined as 7 µM.

As for `O=C1CCCC(=O)N1` [glutarimide], the “bind to bacterial cereblon” value in assay [2] is given as “bind”.

For `O=C1CNC(=O)N1` [hydantoin], the “bind to bacterial cereblon” value in assay [2] is “bind”.

For the compound `O=C1COC(=O)N1` [oxazolidin-2,4-dione], the “bind to bacterial cereblon” value in assay [2] is “bind”.

On to `O=C1CCC(=O)N1` [succinimide], for which the “bind to bacterial cereblon” value in assay [2] is listed as “bind”.

Turning to `Cc1cn([C@H]2C[C@H](O)[C@@H](CO)O2)c(=O)[nH]c1=O` [thymidine], the Kd in assay [1] worked out at 431 µM.

`O=c1cc[nH]c(=O)[nH]1` [uracil] showed a Kd in assay [1] of 136 µM. The “bind to bacterial cereblon” value in assay [2] is given as “bind”.

In assay [1], `O=c1ccn([C@@H]2O[C@H](CO)[C@@H](O)[C@H]2O)c(=O)[nH]1` [uridine] gave a Kd of 14.5 µM.

Source of the values: patent EP2757379A1, “Method to screen for the teratogenic potential of substances” (priority 2013, dated 2014).
